Numbers after ± are expanded uncertainties.
Settings: 100 kPa, Liquid, Capillary tube (Ostwald / Ubbelohde) method

Row | SMILES | kinematic viscosity (318.15 K) [m2/s] | kinematic viscosity (323.15 K) [m2/s] | kinematic viscosity (328.15 K) [m2/s] | kinematic viscosity (333.15 K) [m2/s] | kinematic viscosity (338.15 K) [m2/s] | kinematic viscosity (343.15 K) [m2/s] | kinematic viscosity (348.15 K) [m2/s] | kinematic viscosity (353.15 K) [m2/s] | kinematic viscosity (358.15 K) [m2/s] | kinematic viscosity (363.15 K) [m2/s] | kinematic viscosity (368.15 K) [m2/s] | kinematic viscosity (373.15 K) [m2/s] | kinematic viscosity (383.15 K) [m2/s] | kinematic viscosity (393.15 K) [m2/s] | kinematic viscosity (403.15 K) [m2/s] | kinematic viscosity (413.15 K) [m2/s] | kinematic viscosity (423.15 K) [m2/s] | also measured
1 | CCCCCCCCCCl [1-chlorononane] | 1.21e-06 ± 2.6e-08 | 1.13e-06 ± 2.4e-08 | 1.07e-06 ± 2.3e-08 | 1e-06 ± 2.1e-08 | 9.48e-07 ± 2e-08 | 8.97e-07 ± 1.9e-08 | 8.52e-07 ± 1.8e-08 | 8.09e-07 ± 1.7e-08 | 7.72e-07 ± 1.6e-08 | 7.37e-07 ± 1.6e-08 | 7.04e-07 ± 1.5e-08 | 6.73e-07 ± 1.4e-08 | 6.19e-07 ± 1.3e-08 | 5.72e-07 ± 1.2e-08 | 5.31e-07 ± 1.1e-08 | 4.94e-07 ± 1e-08 |  | kinematic viscosity (296.21 K): 1.68e-06 ± 3.6e-08 m2/s; kinematic viscosity (300.65 K): 1.57e-06 ± 3.3e-08 m2/s; kinematic viscosity (313.15 K): 1.3e-06 ± 2.8e-08 m2/s
2 | CCCCCCCI [1-iodoheptane] | 8.67e-07 ± 1.9e-08 | 8.12e-07 ± 1.8e-08 | 7.66e-07 ± 1.7e-08 | 7.25e-07 ± 1.6e-08 | 6.87e-07 ± 1.5e-08 | 6.53e-07 ± 1.5e-08 | 6.2e-07 ± 1.4e-08 | 5.91e-07 ± 1.3e-08 |  | 5.41e-07 ± 1.2e-08 | 5.17e-07 ± 1.2e-08 | 4.98e-07 ± 1.1e-08 | 4.58e-07 ± 1e-08 | 4.24e-07 ± 9.6e-09 | 3.96e-07 ± 8.9e-09 | 3.7e-07 ± 8.4e-09 | 3.46e-07 ± 7.8e-09 | kinematic viscosity (296.35 K): 1.18e-06 ± 2.6e-08 m2/s; kinematic viscosity (297.2 K): 1.17e-06 ± 2.6e-08 m2/s; kinematic viscosity (303.5 K): 1.06e-06 ± 2.4e-08 m2/s; kinematic viscosity (313.2 K): 9.24e-07 ± 2.1e-08 m2/s; kinematic viscosity (378.15 K): 4.76e-07 ± 1.1e-08 m2/s
3 | CCCCCCI [1-iodohexane] | 7.01e-07 ± 1.5e-08 | 6.63e-07 ± 1.4e-08 | 6.26e-07 ± 1.3e-08 | 5.97e-07 ± 1.3e-08 | 5.68e-07 ± 1.2e-08 | 5.39e-07 ± 1.2e-08 | 5.18e-07 ± 1.1e-08 |  | 4.74e-07 ± 1e-08 |  | 4.37e-07 ± 9.3e-09 |  | 3.91e-07 ± 8.4e-09 | 3.64e-07 ± 7.8e-09 |  | 3.19e-07 ± 6.9e-09 | 3.01e-07 ± 6.5e-09 | kinematic viscosity (297.25 K): 9.1e-07 ± 1.9e-08 m2/s; kinematic viscosity (298.15 K): 9.03e-07 ± 1.9e-08 m2/s; kinematic viscosity (298.25 K): 9e-07 ± 1.9e-08 m2/s; kinematic viscosity (300.25 K): 8.74e-07 ± 1.9e-08 m2/s; kinematic viscosity (319.15 K): 6.89e-07 ± 1.5e-08 m2/s

Reference: the NIST ThermoML archive (doi:10.1021/je060158k)
